Data from patent US5847153A, “β-sulfonyl hydroxamic acids” (Pharmacia & Upjohn Company, priority 1997, dated 1998).

Columns and labels:
Gelatinase = assay: in vitro particle concentration fluorescence assay, inhibition of gelatinase; format: biochemical; conditions: pH 7.5, room temperature, read-out: Gelatinase Ki (MMP Inhibition Constants)
Protocol: (§1) Inhibitory activity is evaluated in one or more of the MMP enzymes (stromelysin, gelatinase, and collagenase) in vitro using particle concentration fluorescence assay. An inhibitor binds to MMP enzymes which prevents the degradation of a substrate by stromelysin, gelatinase, or collagenase. The substrate has attached to it a fluorescein and a biotin moiety. The intact substrate then binds to an avidin-coated particle via the biotin moiety. Once the particle is washed and dried, a fluorescent signal is generated since the fluorescent group is attached to the particle. Without an inhibitor present, the substrate is degraded by MMP enzymes and the fluorescein group is removed, therefore, no fluorescent signal can be detected. Testing compounds are dissolved in DMSO to the desired concentration, then the solutions are diluted to 1:5 with MMP buffer (50 mM Tris-HCl, pH 7.5; 150 mM NaCl; 0.02% NaN3). Serial two-fold dilutions of each compound are prepared. A concentrated, activated enzyme solution is transferred into each plate of the testing compounds, and the mixture is incubated at room temperature for 15 minutes. Thawed MMP substrate is then added into all plates, and the plates are incubated in the dark for 1-3 hours at room temperature. At this point, the substrate mixture is mixed with 0.1% avidin-coated polystyrene particles. After 15 minutes, the fluorescence values are measured following filtration and washing of the beads. Ki values are then calculated.

Stromelysin = Stromelysin (Homo sapiens, UniProt P08254); assay: in vitro particle concentration fluorescence assay, inhibition of stromelysin; format: biochemical; conditions: pH 7.5, room temperature, read-out: Stromelysin Ki (MMP Inhibition Constants)
Stromelysin, sequence (P08254 100-477): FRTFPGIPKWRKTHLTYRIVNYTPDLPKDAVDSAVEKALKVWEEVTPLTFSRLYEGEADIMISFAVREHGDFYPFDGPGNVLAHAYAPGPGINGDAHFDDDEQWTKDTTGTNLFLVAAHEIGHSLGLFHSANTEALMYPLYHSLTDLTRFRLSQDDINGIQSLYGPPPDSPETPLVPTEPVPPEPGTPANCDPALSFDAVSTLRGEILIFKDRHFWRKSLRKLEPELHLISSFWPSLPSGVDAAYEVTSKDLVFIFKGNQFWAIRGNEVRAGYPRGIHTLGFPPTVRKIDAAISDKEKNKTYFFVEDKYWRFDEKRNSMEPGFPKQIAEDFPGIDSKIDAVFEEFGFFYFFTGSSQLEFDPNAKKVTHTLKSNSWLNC
Protocol: as §1

CC(CS(=O)(=O)c1ccccc1)C(=O)NO (stereo not drawn) [Example 3, N-hydroxy 2-[(benzenesulfonyl)methyl]-propionamide] was tested, and the Ki (Gelatinase) was 81 nM and the Ki (Stromelysin) was 3600 nM.
Compound CCCCN1CC(=O)N(CC(CS(=O)(=O)c2ccc(OC)cc2)C(=O)NO)C1=O (stereo not drawn) [Example 15, N-hydroxy-2-[methyl-3-(1-butylhydantoin)]-3-(4-methoxybenzenesulfonyl)-propionamide] has a Ki (Gelatinase) of 0.34 nM and a Ki (Stromelysin) of 9 nM.
Compound CCCCCCCCS(=O)(=O)CC(CS(=O)(=O)c1ccc(OC)cc1)C(=O)NO (racemic) [Example 12, N-hydroxy-2-(n-octylsulfonylmethyl)-3-(4-methoxybenzenesulfonyl)-propionamide] has a Ki (Gelatinase) of 0.82 nM and a Ki (Stromelysin) of 5.4 nM.
With CCCCS(=O)(=O)CC(CS(=O)(=O)CCCC)C(=O)NO [Example 7, N-hydroxy-2-[(n-butylsulfonyl)methyl]-3-(n-butylsulfonyl)-propionamide] the Ki (Gelatinase) was 350 nM and the Ki (Stromelysin) was 1000 nM.
Compound COc1ccc(S(=O)(=O)CC(Cc2ccccc2)C(=O)NO)cc1 (stereo not drawn) [Example 1, N-hydroxy 2-[(4-methoxybenzenesulfonyl)methyl]-3-phenyl-propionamide] has a Ki (Gelatinase) of 9.2 nM and a Ki (Stromelysin) of 49 nM.
CCCCOc1ccc(S(=O)(=O)CC(CN2C(=O)CN(CCCC)C2=O)C(=O)NO)cc1 (stereo not drawn) [Example 14, N-hydroxy-2-[methyl-3-(1-butylhydantoin)]-3-(4-butoxybenzenesulfonyl)-propionamide] was tested, and the Ki (Gelatinase) was 0.092 nM and the Ki (Stromelysin) was 1.8 nM.
O=C(NO)C(CS(=O)(=O)c1ccc(Cl)cc1)CS(=O)(=O)c1ccc(Cl)cc1 [Example 5, N-hydroxy-2-[(4-chlorobenzenesulfonyl)methyl]-3-(4-chlorobenzenesulfonyl)-propionamide] gave a Ki (Gelatinase) of 1.9 nM and a Ki (Stromelysin) of 72 nM.
For O=C(NO)C(CS(=O)(=O)c1ccc(Br)cc1)CS(=O)(=O)c1ccc(Br)cc1 [Example 6, N-hydroxy-2-[(4-bromobenzenesulfonyl)methyl]-3-(4-bromobenzenesulfonyl)-propionamide], the Ki (Gelatinase) was 2.5 nM and the Ki (Stromelysin) was 92 nM.
O=C(NO)C(CS(=O)(=O)c1ccccc1)CS(=O)(=O)c1ccccc1 [Example 10, N-hydroxy-2-[(benzenesulfonyl)methyl]-3-(benzenesulfonyl)-propionamide] showed a Ki (Gelatinase) of 8 nM and a Ki (Stromelysin) of 160 nM.
For CCCCCCCCS(=O)(=O)CC(CS(=O)(=O)CCCCCCCC)C(=O)NO [Example 8, N-hydroxy-2-[(n-octylsulfonyl)methyl]-3-(n-octylsulfonyl)-propionamide], the Ki (Gelatinase) was 190 nM and the Ki (Stromelysin) was 440 nM.
Compound Cc1ccc(S(=O)(=O)CC(CS(=O)(=O)c2ccc(C)cc2)C(=O)NO)cc1 [Example 9, N-hydroxy-2-[(4-methylbenzenesulfonyl)methyl]-3-(4-methylbenzenesulfonyl)-propionamide] has a Ki (Gelatinase) of 3.8 nM and a Ki (Stromelysin) of 130 nM.
With COc1ccc(S(=O)(=O)CCCC(CS(=O)(=O)c2ccc(OC)cc2)C(=O)NO)cc1 (stereo not drawn) [Example 11, N-hydroxy-2-[(4-methoxybenzenesulfonyl)-methyl]-5-(4-methoxybenzenesulfonyl)-pentanamide] the Ki (Gelatinase) was 1 nM and the Ki (Stromelysin) was 1 nM.
Work on O=C(NO)C(Cc1ccccc1)CS(=O)(=O)c1ccccc1 (stereo not drawn) [Example 2, N-hydroxy 2-[(benzenesulfonyl)methyl]-3-phenyl-propionamide] yielded a Ki (Gelatinase) of 87 nM and a Ki (Stromelysin) of 1100 nM.
Work on COc1ccc(S(=O)(=O)CC(CS(=O)(=O)c2ccc(OC)cc2)C(=O)NO)cc1 [Example 4, N-hydroxy-2-[(4-methoxybenzene-sulfonyl)methyl]-3-(4-methoxybenzenesulfonyl)-propionamide] yielded a Ki (Gelatinase) of 0.19 nM and a Ki (Stromelysin) of 3.9 nM.
With COc1ccc(S(=O)(=O)CC(CN2C(=O)CN(C)C2=O)C(=O)NO)cc1 (stereo not drawn) [Example 13, N-hydroxy-2-[methyl-3-(1-methylhydantoin)]-3-(4-methoxybenzenesulfonyl)-propionamide] the Ki (Gelatinase) was 1.3 nM and the Ki (Stromelysin) was 17 nM.
